Test results: patent US9120762B2, “Salts of bicyclo-substituted pyrazolon azo derivatives, preparation method and use thereof” (Jiangsu Hengrui Medicine Co., Ltd., priority 2009, dated 2015)
Converted amounts (≈) assume the structure as drawn. Like-named read-outs stand apart in the source and are kept apart here. Each block holds one molecule with its values, some of them ahead of it.

Columns and labels:
[1] = Pharmacokinetics assay in rats; type: in vivo, SD rats; conditions: SD rats, intragastric, 50 mg/Kg (as free acid); for Vd/F / AUC / CL/F / half-life / MRT / Cmax / Tmax: both sexes, rat, po; for Vd/F: read-out: Apparent Distribution Volume Vz/F; for AUC: read-out: Area Under Curve AUC; for CL/F: read-out: Clearance CL/F (converted); for half-life: read-out: Half-Life t½ (converted); for MRT: read-out: Mean Residence Time MRT; for Cmax: read-out: Plasma Conc. Cmax; for Tmax: read-out: Time to peak Tmax
Protocol: The compounds of the present disclosure were administrated intragastrically to rats to determine the drug concentration in plasma at different time points by HPLC-UV. The pharmacokinetic behavior of the compounds of the present disclosure was studied and evaluated in rats. […] Healthy adult SD rats, male and female in half, were purchased from SINO-BRITSH SIPPR/BK LAB.ANIMAL LTD., Colo., License number: SCXK (Shanghai) 2003-0002 The test compound was diluted with 1% sodium carboxymethyl cellulose to 5 mg/mL (calculated as the free acid form) of suspension before use. Healthy adult SD rats, male and female in half, were divided into 23 groups. […] The plasma samples were stored at −20° C. until analysis. The rats were fed 2 hours after administration. […] Then the mixture was mixed for 3 minute using a vortexer and centrifuged for 10 minutes at 13,500 rpm. 40 μL of the supernatant was analyzed by HPLC-UV. The compartmental model of pharmacokinetics was fitted for the test compounds and the major pharmacokinetic parameters were calculated in which Cmax and tmax were the actually measured values.

[2] = Solubility assay in water, 0.1% hydrochloric acid and methanol; type: physicochemical
Protocol: The solubility was characterized by:
The term “very soluble” refers to that 1 g (mL) of solute can be dissolved in less than 1 mL of solvent;
The term “freely soluble” refers to that 1 g (mL) of solute can be dissolved in from 1 mL to 10 mL, not including 10 mL of solvent;
The term “soluble” refers to that 1 g (mL) of solute can be dissolved in from 10 mL to 30 mL, not including 30 mL of solvent;
The term “sparingly soluble” refers to that 1g (mL) of solute can be dissolved in from 30 mL to 100 mL, not including 100 mL of solvent;
The term “slightly soluble” refers to that 1g (mL) of solute can be dissolved in from 100 mL to 1000 mL, not including 1000 mL of solvent;
The term “very slightly soluble” refers to that 1g (mL) of solute can be dissolved in from 1000 mL to 10000 mL, not including 10000 mL of solvent;
The term “practically insoluble or insoluble” refers to that 1g (mL) of solute cannot be dissolved completely in 10000 mL of solvent.

SMILES: CC1=NN(c2ccc3c(c2)CCC3)C(=O)/C1=N\Nc1cccc(-c2ccc(C(=O)O)o2)c1O.NCCO.NCCO [Example 16, (Z)-5-{2-hydroxy-3-[N′-(1-indan-5-yl-3-methyl-5-oxo-1,5-dihydro-pyrazol-4-ylidene)-hydrazino]-phenyl}-furan-2-carboxylic acid bis-(ethanolamine)]
Vd/F ([1]; SD, plasma, 50 mg/kg): 6.33 ± 4.57 L/kg | AUC ([1]; SD, plasma, 50 mg/kg): 52.4 ± 48 µg·h/mL | CL/F ([1]; SD, plasma, 50 mg/kg): 32.3 mL/min/kg | half-life ([1]; SD, plasma, 50 mg/kg): 125 ± 104 min | MRT ([1]; SD, plasma, 50 mg/kg): 3.84 ± 1.03 h | Cmax ([1]; SD, plasma, 50 mg/kg): 19600 ± 16300 ng/mL | Tmax ([1]; SD, plasma, 50 mg/kg): 2 ± 0.82 h

SMILES: CC1=NN(c2ccc3c(c2)CCCC3)C(=O)/C1=N\Nc1cccc(-c2ccc(C(=O)O)o2)c1O [Example 7d, (Z)-5-(2-hydroxy-3-{N′-[3-methyl-5-oxo-1-(5,6,7,8-tetrahydro-naphthalen-2-yl)-1,5-dihydro-pyrazol-4-ylidene]-hydrazino}-phenyl)-furan-2-carboxylic acid]
Half-Life t½ ([1]; 50 mg/kg): 7.42 ± 7.19 h | Plasma Conc. Cmax ([1]; 50 mg/kg): 16.2 ± 3.9 µg/mL | Time to peak Tmax ([1]; 50 mg/kg): 2.5 ± 1.0 h

SMILES: CC1=NN(c2ccc3c(c2)CCC3)C(=O)/C1=N\Nc1cccc(-c2csc(C(=O)O)c2)c1O.NCCO.NCCO [Example 19, (Z)-4-{2-hydroxy-3-[N′-(1-indan-5-yl-3-methyl-5-oxo-1,5-dihydro-pyrazol-4-ylidene)-hydrazino]-phenyl}-thiophene-2-carboxylic acid bis-(ethanolamine)]
Vd/F ([1]; SD, plasma, 50 mg/kg): 5.47 ± 2.72 L/kg | AUC ([1]; SD, plasma, 50 mg/kg): 89.2 ± 7.2 µg·h/mL | CL/F ([1]; SD, plasma, 50 mg/kg): 14.7 mL/min/kg | half-life ([1]; SD, plasma, 50 mg/kg): 343 ± 221 min | MRT ([1]; SD, plasma, 50 mg/kg): 7.85 ± 2.92 h | Cmax ([1]; SD, plasma, 50 mg/kg): 20800 ± 17300 ng/mL | Tmax ([1]; SD, plasma, 50 mg/kg): 1.81 ± 2.79 h

Vd/F ([1]; SD, plasma, 50 mg/kg): 0.95 ± 0.42 L/kg | AUC ([1]; SD, plasma, 50 mg/kg): 680 ± 255 µg·h/mL | CL/F ([1]; SD, plasma, 50 mg/kg): 1.48 mL/min/kg | half-life ([1]; SD, plasma, 50 mg/kg): 469 ± 80.4 min | MRT ([1]; SD, plasma, 50 mg/kg): 11.2 ± 2.6 h | Cmax ([1]; SD, plasma, 50 mg/kg): 61800 ± 18700 ng/mL | Tmax ([1]; SD, plasma, 50 mg/kg): 5.5 ± 1 h
SMILES: CC1=NN(c2ccc(C)c(C)c2)C(=O)/C1=N\Nc1cccc(-c2cccc(C(=O)O)c2)c1O [Eltrombopag, eltrombopag, reference compound]

SMILES: CC1=NN(c2ccc3c(c2)CCC3)C(=O)/C1=N\Nc1cccc(-c2csc(C(=O)O)c2)c1O.CCNCC.CCNCC [Example 20, (Z)-4-{2-hydroxy-3-[N′-(1-indan-5-yl-3-methyl-5-oxo-1,5-dihydro-pyrazol-4-ylidene)-hydrazino]-phenyl}-thiophene-2-carboxylic acid bis-(diethylamine)]
Vd/F ([1]; in vivo): 2.05 ± 0.68 L/kg | AUC ([1]; in vivo): 275 ± 116 µg·h/mL | CL/F ([1]; in vivo): 3.5 mL/min/kg | half-life ([1]; in vivo): 434 ± 147 min | MRT ([1]; in vivo): 7.59 ± 1.33 h | Cmax ([1]; in vivo): 46100 ± 15700 ng/mL | Tmax ([1]; in vivo): 4.5 ± 1 h

SMILES: CC1=NN(c2ccc3c(c2)CCC3)C(=O)/C1=N\Nc1cccc(-c2ccc(C(=O)O)o2)c1O.CCNCC.CCNCC [Example 17, (Z)-5-{2-hydroxy-3-[N′-(1-indan-5-yl-3-methyl-5-oxo-1,5-dihydro-pyrazol-4-ylidene)-hydrazino]-phenyl}-furan-2-carboxylic acid bis-(diethylamine)]
Vd/F ([1]; in vivo): 8.16 ± 11.1 L/kg | AUC ([1]; in vivo): 138 ± 33 µg·h/mL | CL/F ([1]; in vivo): 6.33 mL/min/kg | half-life ([1]; in vivo): 762 ± 882 min | MRT ([1]; in vivo): 14 ± 12 h | Cmax ([1]; in vivo): 21500 ± 10500 ng/mL | Tmax ([1]; in vivo): 3.38 ± 3.04 h

SMILES: CC1=NN(c2ccc3c(c2)CCCC3)C(=O)/C1=N\Nc1cccc(-c2ccc(C(=O)O)o2)c1O [Example 11, (Z)-5-(2-hydroxy-3-{N′-[3-methyl-5-oxo-1-(5,6,7,8-tetrahydro-naphthalen-2-yl)-1,5-dihydro-pyrazol-4-ylidene]-hydrazino}-phenyl)-furan-2-carboxylic acid bis-(piperazine)]
Area Under Curve AUC ([1]; 50 mg/kg): 270 ± 178 µg·h/mL | Clearance CL/F ([1]; 50 mg/kg): 0.877 ± 1.465 L/h/kg | Half-Life t½ ([1]; 50 mg/kg): 12.1 ± 7.19 h | Plasma Conc. Cmax ([1]; 50 mg/kg): 40.2 ± 24.3 µg/mL | Time to peak Tmax ([1]; 50 mg/kg): 1.5 ± 0.58 h

SMILES: CC1=NN(c2ccc3c(c2)CCC3)C(=O)/C1=N\Nc1cccc(-c2cccc(C(=O)O)c2)c1O.CCNCC.CCNCC [Example 2, (Z)-2′-hydroxy-3′-[N′-(1-indan-5-yl-3-methyl-5-oxo-1,5-dihydro-pyrazol-4-ylidene)-hydrazino]-biphenyl-3-carboxylic acid bis-(diethylamine)]
Vd/F ([1]; in vivo): 0.83 ± 0.16 L/kg | AUC ([1]; in vivo): 833 ± 64 µg·h/mL | CL/F ([1]; in vivo): 1 mL/min/kg | half-life ([1]; in vivo): 573 ± 86.4 min | MRT ([1]; in vivo): 11.1 ± 0.76 h | Cmax ([1]; in vivo): 83900 ± 11200 ng/mL | Tmax ([1]; in vivo): 5 ± 1.16 h

SMILES: CC1=NN(c2ccc3c(c2)CCC3)C(=O)/C1=N\Nc1cccc(-c2ccc(C(=O)O)o2)c1O [Example 18, (Z)-5-{2-hydroxy-3-[N′-(1-indan-5-yl-3-methyl-5-oxo-1,5-dihydro-pyrazol-4-ylidene)-hydrazino]-phenyl}-furan-2-carboxylic acid bis-(piperazine)]
solubility ([2]; 0.1% hydrochloric acid): <0.001 mg/mL | solubility ([2]; methanol): 6.096 mg/mL (≈ 13.7 mM) | solubility ([2]; water): 2.741 mg/mL (≈ 6.17 mM) | Area Under Curve AUC ([1]; 50 mg/kg): 119 ± 102 µg·h/mL | Clearance CL/F ([1]; 50 mg/kg): 0.63 ± 0.35 L/h/kg | Half-Life t½ ([1]; 50 mg/kg): 3.99 ± 1.60 h | Mean Residence Time MRT ([1]; 50 mg/kg): 5.31 ± 2.64 h | Plasma Conc. Cmax ([1]; 50 mg/kg): 23.3 ± 11.6 µg/mL | Time to peak Tmax ([1]; 50 mg/kg): 1.63 ± 1.63 h

SMILES: CC1=NN(c2ccc3c(c2)CCC3)C(=O)/C1=N\Nc1cccc(-c2cccc(C(=O)O)c2)c1O [Example 3, (Z)-2′-hydroxy-3′-[N′-(1-indan-5-yl-3-methyl-5-oxo-1,5-dihydro-pyrazol-4-ylidene)-hydrazino]-biphenyl-3-carboxylic acid bis-(piperazine)]
solubility ([2]; 0.1% hydrochloric acid): <0.001 mg/mL | solubility ([2]; methanol): 1.534 mg/mL (≈ 3.38 mM) | solubility ([2]; water): 2.290 mg/mL (≈ 5.04 mM) | Area Under Curve AUC ([1]; 50 mg/kg): 842 ± 185 µg·h/mL | Half-Life t½ ([1]; 50 mg/kg): 8.87 ± 0.78 h | Mean Residence Time MRT ([1]; 50 mg/kg): 13.0 ± 0.9 h | Plasma Conc. Cmax ([1]; 50 mg/kg): 79 ± 9.3 µg/mL | CL/F ([1]; SD, plasma, 50 mg/kg): 1.03 mL/min/kg | Tmax ([1]; SD, plasma, 50 mg/kg): 5.5 ± 1 h

SMILES: CC1=NN(c2ccc3c(c2)CCC3)C(=O)/C1=N\Nc1cccc(-c2csc(C(=O)O)c2)c1O [Example 21, (Z)-4-{2-hydroxy-3-[N′-(1-indan-5-yl-3-methyl-5-oxo-1,5-dihydro-pyrazol-4-ylidene)-hydrazino]-phenyl}-thiophene-2-carboxylic acid bis-(piperazine)]
solubility ([2]; 0.1% hydrochloric acid): <0.001 mg/mL | solubility ([2]; methanol): 2.416 mg/mL (≈ 5.25 mM) | solubility ([2]; water): 0.814 mg/mL (≈ 1.77 mM) | Area Under Curve AUC ([1]; 50 mg/kg): 380 ± 109 µg·h/mL | Clearance CL/F ([1]; 50 mg/kg): 0.14 ± 0.04 L/h/kg | Half-Life t½ ([1]; 50 mg/kg): 6.86 ± 0.48 h | Mean Residence Time MRT ([1]; 50 mg/kg): 8.61 ± 0.31 h | Plasma Conc. Cmax ([1]; 50 mg/kg): 61.1 ± 1.38 µg/mL | Time to peak Tmax ([1]; 50 mg/kg): 5.5 ± 1.0 h
